# Measured values taken from patent EP4678638A1, “NEW E3 UBIQUITIN LIGASE LIGAND, PROTEIN DEGRADATION AGENT AND USE THEREOF” (priority 2023, dated 2024).
# Legend:
# ALK = target: T1, ALK (Homo sapiens, UniProt Q96SW2+Q9HC35+Q9UM73); test: Western blot degradation of ALK (H2228 Cell); format: cell-based; conditions: Table D5
# T1 construct: evaluate the effects of the compounds of the present disclosure on the expression of target proteins in cells; endogenous in cells; host or cells: H2228
# Description: Conventional Western blot assay was performed to evaluate the effects of the compounds of the present disclosure on the expression of target proteins in cells.
# (1) Cell Seeding and Protein Harvesting: The selected cells were processed according to the cell seeding procedure and protein harvesting procedure in Table III-2. Table III-2 Cell Seeding and Protein Harvesting Procedures
# (2) To the collected supernatant, 5X SDS sample loading buffer was added, followed by denaturation at 95°C for 5 minutes. The denatured samples were then separated by SDS-PAGE electrophoresis on a polyacrylamide gel. Proteins were transferred to a nitrocellulose membrane (0.45 µm NC membrane), blocked with blocking buffer at room temperature for 1 hour, and subjected to antibody incubation and development procedures according to the antibody manufacturer's instructions (Cell Signaling Technology).
# Half-Maximal Degradation Concentration value (the drug concentration required for degrading proteins by 50%, abbreviated as DC50) reads method: comparing the grayscale values of Western blot bands from drug-treated samples with those from blank DMSO-treated controls, and identifying the drug concentration range at which the grayscale value is half that of the DMSO-treated control bands.
# DC50 values can be calculated using ImageJ software to measure grayscale values of Western blot bands from drug-treated samples. The concentration-response curve is fitted to estimate the drug concentration corresponding to half the grayscale value.
# Target protein remaining (%) refers to the percentage of target protein remaining in hPBMC cells after treatment with protein degrader compounds.
# Calculation method for target protein remaining (%): Use ImageJ software to measure grayscale values of Western blot bands from drug (protein degrader)-treated samples. The grayscale value of drug-treated bands is divided by that of internal control protein bands, and the resulting quotient is normalized to obtain the relative percentage of remaining target protein after protein degrader treatment.
# Target protein degradation rate (%) = 100% - target protein remaining (%).
# [1] = target: T2, human Cereblon WT GST-tagged protein (Homo sapiens, UniProt Q96SW2); test: CRBN binding, HTRF (CEREBLON BINDING kit); conditions: Table II-2, CRBN binding screening, HTRF; for inhibition at 0.5 µM: read-out: Inhibition rate (%) at 0.5µM; for inhibition at 2 µM: read-out: Inhibition rate (%) at 2 µM
# T2 construct: purchased CISBIO 64BDCRBNPEH
# Procedure, shortened: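 Competitive HTRF: GST-tagged human WT Cereblon mixed with compound, Thalidomide-Re tracer and GST Eu antibody, incubated 3 h at room temperature. Signals read at 620 and 665 nm.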
# SR = test: CCK-8 proliferation, SR; format: cell-based, Human; conditions: Homo sapiens; Table B6, compounds designed based on the ALK inhibitors; SR cells; read-out: Inhibitory activity (IC50, nM) on tumor cell proliferation, SR
# Procedure, shortened: (§1)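 CCK-8 viability readout; IC50 from growth-inhibition curve fitting. Cells plated, dosed 24h later with a 10-point series, top 10µM, 5-fold steps. Culture at 37°C, 5% CO2.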
# H1975 = test: CCK-8 proliferation, NCI-H1975 (H1975); format: cell-based, Human; conditions: Homo sapiens, NCI-H1975; Table B6, compounds designed based on the ALK inhibitors; H1975 cells; read-out: Inhibitory activity (IC50, nM) on tumor cell proliferation, H1975
# Procedure, shortened: as §1
# MCF7 = test: CCK-8 proliferation, MCF7 (MCF-7); format: cell-based; conditions: Homo sapiens, MCF7; Table B6, compounds designed based on the ALK inhibitors; MCF-7 cells; read-out: Inhibitory activity (IC50, nM) on tumor cell proliferation, MCF-7
# Procedure, shortened: as §1
# H2228 = test: CCK-8 proliferation, NCI-H2228 (H2228); format: cell-based; conditions: Homo sapiens, NCI-H2228; Table B6, compounds designed based on the ALK inhibitors; H2228 cells; read-out: Inhibitory activity (IC50, nM) on tumor cell proliferation, H2228
# Procedure, shortened: as §1
# T2 sequence (Q96SW2 whole entry): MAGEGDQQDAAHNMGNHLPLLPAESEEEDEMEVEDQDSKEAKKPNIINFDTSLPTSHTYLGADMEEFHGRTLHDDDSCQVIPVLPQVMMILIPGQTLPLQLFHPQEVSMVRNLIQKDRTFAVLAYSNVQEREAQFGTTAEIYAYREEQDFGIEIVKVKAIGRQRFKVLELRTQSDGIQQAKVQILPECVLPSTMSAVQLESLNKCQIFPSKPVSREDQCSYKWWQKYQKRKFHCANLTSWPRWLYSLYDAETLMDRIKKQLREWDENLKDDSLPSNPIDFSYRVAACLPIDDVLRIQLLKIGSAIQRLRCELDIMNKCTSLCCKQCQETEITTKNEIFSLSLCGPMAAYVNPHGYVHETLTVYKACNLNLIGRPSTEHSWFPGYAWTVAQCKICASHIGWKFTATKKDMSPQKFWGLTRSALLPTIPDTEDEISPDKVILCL
# T1 sequence (Q9HC35+Q9UM73 fused): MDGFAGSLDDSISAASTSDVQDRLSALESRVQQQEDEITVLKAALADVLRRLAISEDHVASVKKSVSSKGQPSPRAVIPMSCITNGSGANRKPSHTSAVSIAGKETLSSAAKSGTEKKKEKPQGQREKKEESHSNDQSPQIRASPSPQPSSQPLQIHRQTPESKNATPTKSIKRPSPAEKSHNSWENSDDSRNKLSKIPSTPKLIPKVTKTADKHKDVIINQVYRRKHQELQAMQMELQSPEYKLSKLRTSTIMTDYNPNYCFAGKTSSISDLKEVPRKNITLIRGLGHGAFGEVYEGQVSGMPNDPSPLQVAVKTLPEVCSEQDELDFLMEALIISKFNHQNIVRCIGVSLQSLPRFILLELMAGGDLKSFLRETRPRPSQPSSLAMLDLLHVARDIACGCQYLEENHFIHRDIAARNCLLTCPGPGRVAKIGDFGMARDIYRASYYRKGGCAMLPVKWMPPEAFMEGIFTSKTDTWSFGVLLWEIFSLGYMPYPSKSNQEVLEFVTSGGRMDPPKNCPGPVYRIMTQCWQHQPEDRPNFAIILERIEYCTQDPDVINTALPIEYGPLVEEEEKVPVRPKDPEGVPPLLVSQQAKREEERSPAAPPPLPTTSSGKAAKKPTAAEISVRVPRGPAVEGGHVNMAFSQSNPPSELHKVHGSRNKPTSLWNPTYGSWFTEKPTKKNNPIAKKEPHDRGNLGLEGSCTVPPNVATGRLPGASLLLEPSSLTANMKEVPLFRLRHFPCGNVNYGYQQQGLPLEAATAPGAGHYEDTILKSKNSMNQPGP
# T1 sequence (Q96SW2 whole entry): as the sequence (Q96SW2 whole entry) above
# T1 sequence (Q16531 whole entry partner): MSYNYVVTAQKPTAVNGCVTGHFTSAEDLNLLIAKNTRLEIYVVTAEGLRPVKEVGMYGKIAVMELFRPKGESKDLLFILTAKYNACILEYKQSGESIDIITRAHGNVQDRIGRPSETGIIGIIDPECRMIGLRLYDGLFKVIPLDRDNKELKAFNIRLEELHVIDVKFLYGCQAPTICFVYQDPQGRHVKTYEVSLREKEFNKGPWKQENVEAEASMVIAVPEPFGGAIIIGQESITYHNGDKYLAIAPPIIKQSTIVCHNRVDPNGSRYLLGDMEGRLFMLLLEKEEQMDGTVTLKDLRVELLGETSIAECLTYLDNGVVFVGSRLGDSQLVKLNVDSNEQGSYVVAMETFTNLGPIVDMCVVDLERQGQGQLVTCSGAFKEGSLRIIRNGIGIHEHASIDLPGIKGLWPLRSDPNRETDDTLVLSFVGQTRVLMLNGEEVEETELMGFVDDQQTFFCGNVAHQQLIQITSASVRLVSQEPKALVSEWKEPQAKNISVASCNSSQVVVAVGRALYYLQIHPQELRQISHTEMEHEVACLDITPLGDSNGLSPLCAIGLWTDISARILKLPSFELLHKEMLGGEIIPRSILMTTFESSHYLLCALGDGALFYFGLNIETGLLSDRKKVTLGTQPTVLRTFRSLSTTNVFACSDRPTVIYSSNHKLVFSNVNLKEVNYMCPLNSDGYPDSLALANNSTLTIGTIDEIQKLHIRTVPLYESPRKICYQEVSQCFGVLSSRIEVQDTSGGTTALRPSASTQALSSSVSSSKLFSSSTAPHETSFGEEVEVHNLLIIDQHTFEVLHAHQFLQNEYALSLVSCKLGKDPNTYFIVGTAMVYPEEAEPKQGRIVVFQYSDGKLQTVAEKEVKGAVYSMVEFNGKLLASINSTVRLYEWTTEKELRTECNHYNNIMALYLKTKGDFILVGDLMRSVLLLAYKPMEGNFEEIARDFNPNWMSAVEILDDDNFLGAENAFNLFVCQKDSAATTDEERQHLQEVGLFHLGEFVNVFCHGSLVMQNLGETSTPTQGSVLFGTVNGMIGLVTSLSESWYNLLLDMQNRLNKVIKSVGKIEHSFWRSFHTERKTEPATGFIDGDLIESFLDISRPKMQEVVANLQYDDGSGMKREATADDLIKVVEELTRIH
Compound,inhibition at 0.5 µM [1] [%],inhibition at 2 µM [1] [%],IC50 (H1975) [nM],IC50 (MCF7) [nM],IC50 (H2228) [nM],Degradation of substrate protein ALK (substrate protein remaining %) (ALK),IC50 (SR) [nM]
"COc1cc(N2CCN(Cc3ccc(C4CCC(=O)NC4=O)cc3)CC2)ccc1Nc1ncc(Cl)c(Nc2ccccc2P(C)(C)=O)n1 (stereo not drawn) [GT-03781, 3-(4-((4-(4-((5-chloro-4-((2-(dimethylphosphoryl)phenyl)amino)pyrimidin-2-yl)amino)-3-methoxyphenyl)piperazin-1-yl)methyl)phenyl)piperidine-2,6-dione]",40 to 53,60 to 80,500 to 1000,,,A (A is defined as 0% ≤ substrate protein remaining % ≤ 80%),1 to 10
"COc1cc(N2CCN(Cc3ccc(C4CCC(=O)NC4=O)c(F)c3)CC2)ccc1Nc1ncc(Cl)c(Nc2ccccc2P(C)(C)=O)n1 (stereo not drawn) [GT-03782, 3-(4-((4-(4-((5-chloro-4-((2-(dimethylphosphoryl)phenyl)amino)pyrimidin-2-yl)amino)-3-methoxyphenyl)piperazin-1-yl)methyl)-2-fluorophenyl)piperidine-2,6-dione]",40 to 53,80 to 100,,,,A (A is defined as 0% ≤ substrate protein remaining % ≤ 80%),10 to 50
"COc1cc(N2CCN(Cc3ccc(N4CCC(=O)NC4=O)cc3F)CC2)ccc1Nc1ncc(Cl)c(Nc2ccccc2P(C)(C)=O)n1 [GT-07347, 1-(4-((4-(4-((5-chloro-4-((2-(dimethylphosphoryl)phenyl)amino)pyrimidin-2-yl)amino)-3-methoxyphenyl)piperazin-1-yl)methyl)-3-fluorophenyl)dihydropyrimidine-2,4(1H,3H)-dione]",,,100 to 500,,100 to 500,A (A is defined as 0% ≤ substrate protein remaining % ≤ 80%),10 to 50
"COc1cc(N2CCN(Cc3cccc(N4CCC(=O)NC4=O)c3)CC2)ccc1Nc1ncc(Cl)c(Nc2ccccc2P(C)(C)=O)n1 [GT-07348, 1-(3-((4-(4-((5-chloro-4-((2-(dimethylphosphoryl)phenyl)amino)pyrimidin-2-yl)amino)-3-methoxyphenyl)piperazin-1-yl)methyl)phenyl)dihydropyr imidine-2,4(1H,3H)-dione]",,,500 to 1000,,100 to 500,A (A is defined as 0% ≤ substrate protein remaining % ≤ 80%),10 to 50
"COc1cc(N2CCN(Cc3ccc(N4CCC(=O)NC4=O)cn3)CC2)ccc1Nc1ncc(Cl)c(Nc2ccccc2P(C)(C)=O)n1 [GT-07349, 1-(6-((4-(4-((5-chloro-4-((2-(dimethylphosphoryl)phenyl)amino)pyrimidin-2-yl)amino)-3-methoxyphenyl)piperazin-1-yl)methyl)pyridin-3-yl)dihydropyrimidine-2,4(1H,3H)-dione]",,,500 to 1000,,500 to 1000,A (A is defined as 0% ≤ substrate protein remaining % ≤ 80%),50 to 100
"Cc1cc(Nc2ncc(Cl)c(Nc3ccccc3S(=O)(=O)C(C)C)n2)c(OC(C)C)cc1C1CCN(Cc2cccc(NC3CCC(=O)NC3=O)c2)CC1 (stereo not drawn) [GT-07594, 3-((3-((4-(4-((5-chloro-4-((2-(isopropylsulfonyl)phenyl)amino)pyrimidin-2-yl)amino)-5-isopropoxy-2-methylphenyl)piperidin-1-yl)methyl)phenyl)amino)pip eridine-2,6-dione]",,,,,100 to 500,A (A is defined as 0% ≤ substrate protein remaining % ≤ 80%),50 to 100
"Cc1cc(Nc2ncc(Cl)c(Nc3ccccc3S(=O)(=O)C(C)C)n2)c(OC(C)C)cc1C1CCN(Cc2cc(N3CCC(=O)NC3=O)ncc2F)CC1 [GT-07595, 1-(4-((4-(4-((5-chloro-4-((2-(isopropylsulfonyl)phenyl)amino)pyrimidin-2-yl)amino)-5-isopropoxy-2-methylphenyl)piperidin-1-yl)methyl)-5-fluoropyridin-2-yl)dihydropyrimidine-2,4(1H,3H)-dione]",,,,,500 to 1000,A (A is defined as 0% ≤ substrate protein remaining % ≤ 80%),100 to 500
"COc1cc(N2CCC(N3CCN(Cc4cc(C5CCC(=O)NC5=O)cnc4F)CC3)CC2)ccc1Nc1ncc(Cl)c(Nc2ccccc2P(C)(C)=O)n1 (stereo not drawn) [GT-07611, 3-(5-((4-(1-(4-((5-chloro-4-((2-(dimethylphosphoryl)phenyl)amino)pyrimidin-2-yl)amino)-3-methoxyphenyl)piperidin-4-yl)piperazin-1-yl)methyl)-6-fluoropyridin-3-yl)piperidine-2,6-dione]",,,500 to 1000,,10 to 50,A (A is defined as 0% ≤ substrate protein remaining % ≤ 80%),1 to 10

# Second part, led by results:
inhibition at 0.5 µM [1] [%],inhibition at 2 µM [1] [%],IC50 (H1975) [nM],IC50 (MCF7) [nM],IC50 (H2228) [nM],Compound,Degradation of substrate protein ALK (substrate protein remaining %) (ALK),IC50 (SR) [nM]
,,,500 to 1000,50 to 100,"CCc1cc2c(cc1N1CCC(N3CCN(Cc4ccc(N5CCC(=O)NC5=O)nc4)CC3)CC1)C(C)(C)c1[nH]c3cc(C#N)ccc3c1C2=O [GT-07312, 8-(4-(4-((6-(2,4-dioxotetrahydropyrimidin-1(2H)-yl)pyridin-3-yl)methyl)piperazin-1-yl)piperidin-1-yl)-9-ethyl-6,6-dimethyl-11-oxo-6,11-dihydro-5H-benzo[b]carbazole-3-carbonitrile]",A (A is defined as 0% ≤ substrate protein remaining % ≤ 80%),1 to 10
,,,500 to 1000,100 to 500,"CCc1cc2c(cc1N1CCN(Cc3ccc(N4CCC(=O)NC4=O)cc3)CC1)C(C)(C)c1[nH]c3cc(C#N)ccc3c1C2=O [GT-07324, 8-(4-(4-(2,4-dioxotetrahydropyrimidin-1(2H)-yl)benzyl)piperazin-1-yl)-9-ethyl-6,6-dimethyl-11-oxo-6,11-dihydro-5H-benzo[b]carbazole-3-carbonitrile]",A (A is defined as 0% ≤ substrate protein remaining % ≤ 80%),10 to 50
,,,,100 to 500,"CCc1cc2c(cc1N1CCN(Cc3cccc(N4CCC(=O)NC4=O)c3)CC1)C(C)(C)c1[nH]c3cc(C#N)ccc3c1C2=O [GT-07325, 8-(4-(3-(2,4-dioxotetrahydropyrimidin-1(2H)-yl)benzyl)piperazin-1-yl)-9-ethyl-6,6-dimethyl-11-oxo-6,11-dihydro-5H-benzo[b]carbazole-3-carbonitrile]",A (A is defined as 0% ≤ substrate protein remaining % ≤ 80%),10 to 50
,,,,100 to 500,"CCc1cc2c(cc1N1CCN(Cc3ccc(N4CCC(=O)NC4=O)cn3)CC1)C(C)(C)c1[nH]c3cc(C#N)ccc3c1C2=O [GT-07326, 8-(4-((5-(2,4-dioxotetrahydropyrimidin-1(2H)-yl)pyridin-2-yl)methyl)piperazin-1-yl)-9-ethyl-6,6-dimethyl-11-oxo-6,11-dihydro-5H-benzo[b]carbazole-3-carbonitrile]",A (A is defined as 0% ≤ substrate protein remaining % ≤ 80%),10 to 50
,,,,100 to 500,"CCc1cc2c(cc1N1CCN(Cc3cccc(NC4CCC(=O)NC4=O)c3)CC1)C(C)(C)c1[nH]c3cc(C#N)ccc3c1C2=O (stereo not drawn) [GT-07328, 8-(4-(3-((2,6-dioxopiperidin-3-yl)amino)benzyl)piperazin-1-yl)-9-ethyl-6,6-dimethyl-11-oxo-6,11-dihydro-5H-benzo[b]carbazole-3-carbonitrile]",A (A is defined as 0% ≤ substrate protein remaining % ≤ 80%),10 to 50
